Test results as given in PubChem BioAssay AID2060498 (Molecular Pharmacology Branch, DTP, NCI, 2025).
Values belong to the compound of their own block, whether it stands above or below them.

System: 171881-019-R-J1-PDC tumor spheroids, viability
Experiment: Anticancer human tumor 171881-019-R-J1-PDC patient-derived invasive breast carcinoma cell line growth inhibition [GQUAD]
Conditions: spheroids with HUVEC and MSC; for IC50: curve of first compound; for viability, T/C: stronger effect = lower value
Method in brief: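 Viability of tumor cells grown as complex spheroids with endothelial and stromal cells, exposed to drug combinations. Top concentration at or near clinical Cmax (else 10 microM), diluted in half-log increments.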

[1] = second compound 0.0316 µM, first compound 0.0316 µM
[2] = second compound 0.0316 µM, first compound 0.316 µM
[3] = second compound 0.1 µM, first compound 0.0316 µM
[4] = second compound 0.1 µM, first compound 0.316 µM
[5] = second compound 0.316 µM, first compound 0.0316 µM
[6] = second compound 0.316 µM, first compound 0.316 µM
[7] = second compound 1 µM, first compound 0.0316 µM
[8] = second compound 1 µM, first compound 0.316 µM
[9] = second compound 3.16 µM, first compound 0.0316 µM
[10] = second compound 3.16 µM, first compound 0.316 µM
[11] = second compound 10 µM, first compound 0.0316 µM
[12] = second compound 10 µM, first compound 0.316 µM
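Throughout, for viability, T/C: 100% = DMSO vehicle control viability.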

IC50 (second compound 0.0316 µM): 0.0838 µM
IC50 (second compound 0.1 µM): 0.141 µM
IC50 (second compound 0.316 µM): > 0.316 µM
IC50 (second compound 1 µM): > 0.316 µM
IC50 (second compound 3.16 µM): > 0.316 µM
IC50 (second compound 10 µM): > 0.316 µM
Structure (SMILES): CC[C@@]1(O)C(=O)OCc2c1cc1n(c2=O)Cc2cc3c(CN(C)C)c(O)ccc3nc2-1 + Cc1cnc(CNC(=O)c2c(=O)c3ccc(N4CCCN(C)CC4)nc3n3c2sc2ccccc23)cn1
viability, T/C (second compound 0.0316 µM, first compound 0.000999 µM): 96.2%
viability, T/C (second compound 0.0316 µM, first compound 0.00316 µM): 93.7%
viability, T/C (second compound 0.0316 µM, first compound 0.00999 µM): 89.8%
viability, T/C [1]: 72.3%
viability, T/C (second compound 0.0316 µM, first compound 0.0999 µM): 45.2%
viability, T/C [2]: 40.8%
viability, T/C (second compound 0.1 µM, first compound 0.000999 µM): 89.5%
viability, T/C (second compound 0.1 µM, first compound 0.00316 µM): 78.6%
viability, T/C (second compound 0.1 µM, first compound 0.00999 µM): 76.7%
viability, T/C [3]: 64.1%
viability, T/C (second compound 0.1 µM, first compound 0.0999 µM): 50%
viability, T/C [4]: 45.8%
viability, T/C (second compound 0.316 µM, first compound 0.000999 µM): 74%
viability, T/C (second compound 0.316 µM, first compound 0.00316 µM): 73.1%
viability, T/C (second compound 0.316 µM, first compound 0.00999 µM): 68.9%
viability, T/C [5]: 60.8%
viability, T/C (second compound 0.316 µM, first compound 0.0999 µM): 61.3%
viability, T/C [6]: 50.9%
viability, T/C (second compound 1 µM, first compound 0.000999 µM): 71.6%
viability, T/C (second compound 1 µM, first compound 0.00316 µM): 63.2%
viability, T/C (second compound 1 µM, first compound 0.00999 µM): 65.7%
viability, T/C [7]: 60.7%
viability, T/C (second compound 1 µM, first compound 0.0999 µM): 56.4%
viability, T/C [8]: 50.7%
viability, T/C (second compound 3.16 µM, first compound 0.000999 µM): 63.1%
viability, T/C (second compound 3.16 µM, first compound 0.00316 µM): 59.9%
viability, T/C (second compound 3.16 µM, first compound 0.00999 µM): 62.7%
viability, T/C [9]: 57%
viability, T/C (second compound 3.16 µM, first compound 0.0999 µM): 58.4%
viability, T/C [10]: 50.7%
viability, T/C (second compound 10 µM, first compound 0.000999 µM): 58.5%
viability, T/C (second compound 10 µM, first compound 0.00316 µM): 54.4%
viability, T/C (second compound 10 µM, first compound 0.00999 µM): 54.8%
viability, T/C [11]: 59.7%
viability, T/C (second compound 10 µM, first compound 0.0999 µM): 60.5%
viability, T/C [12]: 48%

Structure (SMILES): CC(C)n1c(=O)n(C)c2cnc3cc(F)c(-c4ccc(OCCCN5CCCCC5)nc4)cc3c21 + Cc1[nH]c2ccc(F)cc2c1-c1nc2c3cccnc3c3ncccc3c2[nH]1
IC50 (second compound 0.0316 µM): 3.36 µM
IC50 (second compound 0.1 µM): 3.35 µM
IC50 (second compound 0.316 µM): 2.42 µM
IC50 (second compound 1 µM): 2.31 µM
IC50 (second compound 3.16 µM): < 0.0316 µM
IC50 (second compound 10 µM): 0.362 µM
viability, T/C [1]: 103%
viability, T/C (second compound 0.0316 µM, first compound 0.1 µM): 94.3%
viability, T/C [2]: 95.4%
viability, T/C (second compound 0.0316 µM, first compound 1 µM): 84.7%
viability, T/C (second compound 0.0316 µM, first compound 3.16 µM): 51.1%
viability, T/C (second compound 0.0316 µM, first compound 10 µM): 22.8%
viability, T/C [3]: 97.3%
viability, T/C (second compound 0.1 µM, first compound 0.1 µM): 104%
viability, T/C [4]: 93.4%
viability, T/C (second compound 0.1 µM, first compound 1 µM): 79.8%
viability, T/C (second compound 0.1 µM, first compound 3.16 µM): 51.7%
viability, T/C (second compound 0.1 µM, first compound 10 µM): 23.8%
viability, T/C [5]: 95.9%
viability, T/C (second compound 0.316 µM, first compound 0.1 µM): 93.2%
viability, T/C [6]: 64.5%
viability, T/C (second compound 0.316 µM, first compound 1 µM): 67.8%
viability, T/C (second compound 0.316 µM, first compound 3.16 µM): 50%
viability, T/C (second compound 0.316 µM, first compound 10 µM): 21.9%
viability, T/C [7]: 89.7%
viability, T/C (second compound 1 µM, first compound 0.1 µM): 75.5%
viability, T/C [8]: 84.8%
viability, T/C (second compound 1 µM, first compound 1 µM): 68%
viability, T/C (second compound 1 µM, first compound 3.16 µM): 43.2%
viability, T/C (second compound 1 µM, first compound 10 µM): 26.9%
viability, T/C [9]: 28.7%
viability, T/C (second compound 3.16 µM, first compound 0.1 µM): 29.2%
viability, T/C [10]: 23.4%
viability, T/C (second compound 3.16 µM, first compound 1 µM): 23.3%
viability, T/C (second compound 3.16 µM, first compound 3.16 µM): 19.1%
viability, T/C (second compound 3.16 µM, first compound 10 µM): 12%
viability, T/C [11]: 65.7%
viability, T/C (second compound 10 µM, first compound 0.1 µM): 49.8%
viability, T/C [12]: 52.4%
viability, T/C (second compound 10 µM, first compound 1 µM): 43.4%
viability, T/C (second compound 10 µM, first compound 3.16 µM): 34.3%
viability, T/C (second compound 10 µM, first compound 10 µM): 16.5%
